Experimental data from US9499550B2 (BRISTOL-MYERS SQUIBB COMPANY, priority 2012, dated 2016).
Where two headings read alike, the source gives them in different places.

How the values were obtained:
[1] = system: HCV genotype 1b (Con1) replicon in HUH-7 cells; experiment: HCV replicon luciferase reporter assay, genotype 1b; assay type: cell-based; conditions: Hepatitis C virus, Huh-7, 72 h, HCV genotype 1b replicon luciferase, 3 days incubation
Procedure, shortened: (§1)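 Replicon inhibition for both genotypes was measured as Renilla luciferase signal (EnduRen, 7.5 μM final, 2 h) after 3-day, 37° C exposure of replicon-bearing HUH-7 cells in 4% FCS DMEM, 0.5% DMSO. The 1b construct carries S1179I; the 1a H77 construct carries P1496L and S2204I. Twenty-point, 3-fold dilutions were fitted four-parametrically for EC50, and CC50 was taken from multiplexed Cell Titer-Blue.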

[2] = system: HCV genotype 1a (H77 strain) replicon in HUH-7 cells; experiment: HCV replicon luciferase reporter assay, genotype 1a; assay type: cell-based; conditions: Hepatitis C virus, Huh-7, 72 h, HCV genotype 1a replicon luciferase, 3 days incubation
Procedure, shortened: as §1

SMILES	EC50 ([1]; read-out: LE_1b (EC50, range))	EC50 ([2]; read-out: LE_1a (EC50, range))	EC50 ([1]; read-out: LE_1b (EC50))	EC50 ([2]; read-out: LE_1a (EC50))
CCOc1cc2cc(OC)ccc2c(O[C@@H]2C[C@H]3C(=O)N[C@]4(C(=O)NS(=O)(=O)C5(C)CC5)C[C@H]4/C=C\CC[C@H](C)C[C@@H](C)[C@H](NC(=O)OC(C)(C)C)C(=O)N3C2)n1 [Compound 3193, tert-butyl ((2R,6S,7R,9S,13aS,14aR,16aS,Z)-2-((3-ethoxy-6-methoxyisoquinolin-1-yl)oxy)-7,9-dimethyl-14a-(((1-methylcyclopropyl)sulfonyl)carbamoyl)-5,16-dioxo-1,2,3,5,6,7,8,9,10,11,13a,14,14a,15,16,16a-hexadecahydrocyclopropa[e]pyrrolo[1,2-a][1,4]diazacyclopentadecin-6-yl)carbamate]	0.51 to 1 nM	1.01 to 5 nM		
CCOc1cc2cc(OC)ccc2c(O[C@@H]2C[C@H]3C(=O)N[C@]4(C(=O)NS(=O)(=O)C5(C)CC5)C[C@H]4/C=C\CC[C@@H](C)C[C@@H](C)[C@H](NC(=O)OC(C)(C)C)C(=O)N3C2)n1 [Compound 3194, tert-butyl ((2R,6S,7R,9R,13aS,14aR,16aS,Z)-2-((3-ethoxy-6-methoxyisoquinolin-1-yl)oxy)-7,9-dimethyl-14a-(((1-methylcyclopropyl)sulfonyl)carbamoyl)-5,16-dioxo-1,2,3,5,6,7,8,9,10,11,13a,14,14a,15,16,16a-hexadecahydrocyclopropa[e]pyrrolo[1,2-a][1,4]diazacyclopentadecin-6-yl)carbamate]	0.1 to 0.5 nM	0.51 to 1 nM	0.44 nM	0.62 nM
COc1ccc2c(O[C@@H]3C[C@H]4C(=O)N[C@]5(C(=O)NS(=O)(=O)C6(C)CC6)C[C@H]5/C=C\CC[C@H](C)C[C@@H](C)[C@H](NC(=O)OC(C)(C)C)C(=O)N4C3)nc(OC(C)C)cc2c1 [Compound 3195, tert-butyl ((2R,6S,7R,9S,13aS,14aR,16aS,Z)-2-((3-isopropoxy-6-methoxyisoquinolin-1-yl)oxy)-7,9-dimethyl-14a-(((1-methylcyclopropyl)sulfonyl)carbamoyl)-5,16-dioxo-1,2,3,5,6,7,8,9,10,11,13a,14,14a,15,16,16a-hexadecahydrocyclopropa[e]pyrrolo[1,2-a][1,4]diazacyclopentadecin-6-yl)carbamate]	0.51 to 1 nM	1.01 to 5 nM		
COc1ccc2c(O[C@@H]3C[C@H]4C(=O)N[C@]5(C(=O)NS(=O)(=O)C6(C)CC6)C[C@H]5/C=C\CC[C@@H](C)C[C@@H](C)[C@H](NC(=O)OC(C)(C)C)C(=O)N4C3)nc(OC(C)C)cc2c1 [Compound 3196, tert-butyl ((2R,6S,7R,9R,13aS,14aR,16aS,Z)-2-((3-isopropoxy-6-methoxyisoquinolin-1-yl)oxy)-7,9-dimethyl-14a-(((1-methylcyclopropyl)sulfonyl)carbamoyl)-5,16-dioxo-1,2,3,5,6,7,8,9,10,11,13a,14,14a,15,16,16a-hexadecahydrocyclopropa[e]pyrrolo[1,2-a][1,4]diazacyclopentadecin-6-yl)carbamate]	0.1 to 0.5 nM	0.51 to 1 nM		
CCOc1cc2cc(OC)ccc2c(O[C@@H]2C[C@H]3C(=O)N[C@]4(C(=O)NS(=O)(=O)C5(C)CC5)C[C@H]4/C=C\CC[C@@H](C)C[C@@H](C)[C@H](NC(=O)OC(C)(C)C(F)(F)F)C(=O)N3C2)n1 [Compound 3198, 1,1,1-trifluoro-2-methylpropan-2-yl((2R,6S,7R,9R,13aS,14aR,16aS,Z)-2-((3-ethoxy-6-methoxyisoquinolin-1-yl)oxy)-7,9-dimethyl-14a-(((1-methylcyclopropyl)sulfonyl)carbamoyl)-5,16-dioxo-1,2,3,5,6,7,8,9,10,11,13a,14,14a,15,16,16a-hexadecahydrocyclopropa[e]pyrrolo[1,2-a][1,4]diazacyclopentadecin-6-yl)carbamate]	1.01 to 5 nM	0.51 to 1 nM		
CCOc1cc2cc(OC)ccc2c(O[C@@H]2C[C@H]3C(=O)N[C@]4(C(=O)NS(=O)(=O)C5(C)CC5)C[C@H]4/C=C\CC[C@@H](C)C[C@@H](C)[C@H](NC(=O)OC(C)(C)C(C)(F)F)C(=O)N3C2)n1 [Compound 3200, 3,3-difluoro-2-methylbutan-2-yl((2R,6S,7R,9R,13aS,14aR,16aS,Z)-2-((3-ethoxy-6-methoxyisoquinolin-1-yl)oxy)-7,9-dimethyl-14a-(((1-methylcyclopropyl)sulfonyl)carbamoyl)-5,16-dioxo-1,2,3,5,6,7,8,9,10,11,13a,14,14a,15,16,16a-hexadecahydrocyclopropa[e]pyrrolo[1,2-a][1,4]diazacyclopentadecin-6-yl)carbamate]	0.51 to 1 nM	0.51 to 1 nM		
COc1ccc2c(O[C@@H]3C[C@H]4C(=O)N[C@]5(C(=O)NS(=O)(=O)C6(C)CC6)C[C@H]5/C=C\CC[C@@H](C)C[C@@H](C)[C@H](NC(=O)OC(C)(C)C(F)(F)F)C(=O)N4C3)nc(OC(C)C)cc2c1 [Compound 3202, 1,1,1-trifluoro-2-methylpropan-2-yl((2R,6S,7R,9R,13aS,14aR,16aS,Z)-2-((3-isopropoxy-6-methoxyisoquinolin-1-yl)oxy)-7,9-dimethyl-14a-(((1-methylcyclopropyl)sulfonyl)carbamoyl)-5,16-dioxo-1,2,3,5,6,7,8,9,10,11,13a,14,14a,15,16,16a-hexadecahydrocyclopropa[e]pyrrolo[1,2-a][1,4]diazacyclopentadecin-6-yl)carbamate]	1.01 to 5 nM	1.01 to 5 nM		
COc1ccc2c(O[C@@H]3C[C@H]4C(=O)N[C@]5(C(=O)NS(=O)(=O)C6(C)CC6)C[C@H]5/C=C\CC[C@@H](C)C[C@@H](C)[C@H](NC(=O)OC(C)(C)C(C)(F)F)C(=O)N4C3)nc(OC(C)C)cc2c1 [Compound 3204, 3,3-difluoro-2-methylbutan-2-yl((2R,6S,7R,9R,13aS,14aR,16aS,Z)-2-((3-isopropoxy-6-methoxyisoquinolin-1-yl)oxy)-7,9-dimethyl-14a-(((1-methylcyclopropyl)sulfonyl)carbamoyl)-5,16-dioxo-1,2,3,5,6,7,8,9,10,11,13a,14,14a,15,16,16a-hexadecahydrocyclopropa[e]pyrrolo[1,2-a][1,4]diazacyclopentadecin-6-yl)carbamate]	1.01 to 5 nM	0.51 to 1 nM		
CC[C@@H]1C[C@H](C)CC/C=C\[C@@H]2C[C@@]2(C(=O)NS(=O)(=O)C2(C)CC2)NC(=O)[C@@H]2C[C@@H](Oc3ncc(OC)c4cc(N(C)C)ccc34)CN2C(=O)[C@H]1NC(=O)OC(C)(C)C [Compound 3206, tert-butyl ((2R,6S,7R,9R,13aS,14aR,16aS,Z)-2-((6-(dimethylamino)-4-methoxyisoquinolin-1-yl)oxy)-7-ethyl-9-methyl-14a-(((1-methylcyclopropyl)sulfonyl)carbamoyl)-5,16-dioxo-1,2,3,5,6,7,8,9,10,11,13a,14,14a,15,16,16a-hexadecahydrocyclopropa[e]pyrrolo[1,2-a][1,4]diazacyclopentadecin-6-yl)carbamate]	1.01 to 5 nM	1.01 to 5 nM		
CC[C@@H]1C[C@H](C)CC/C=C\[C@@H]2C[C@@]2(C(=O)NS(=O)(=O)C2(C)CC2)NC(=O)[C@@H]2C[C@@H](Oc3ncc(OC)c4cc(N(C)C)ccc34)CN2C(=O)[C@H]1NC(=O)OC(C)(C)C(F)(F)F [Compound 3208, 1,1,1-trifluoro-2-methylpropan-2-yl((2R,6S,7R,9R,13aS,14aR,16aS,Z)-2-((6-(dimethylamino)-4-methoxyisoquinolin-1-yl)oxy)-7-ethyl-9-methyl-14a-(((1-methylcyclopropyl)sulfonyl)carbamoyl)-5,16-dioxo-1,2,3,5,6,7,8,9,10,11,13a,14,14a,15,16,16a-hexadecahydrocyclopropa[e]pyrrolo[1,2-a][1,4]diazacyclopentadecin-6-yl)carbamate]	0.51 to 1 nM	1.01 to 5 nM		
COc1cc2cc(F)ccc2c(O[C@@H]2C[C@H]3C(=O)N[C@]4(C(=O)NS(=O)(=O)C5(CF)CC5)C[C@H]4/C=C\CC[C@@H](C)C[C@@H](C)[C@H](NC(=O)OC(C)(C)C)C(=O)N3C2)n1 [Compound 3210, tert-butyl ((2R,6S,7R,9R,13aS,14aR,16aS,Z)-2-((6-fluoro-3-methoxyisoquinolin-1-yl)oxy)-14a-(((1-(fluoromethyl)cyclopropyl)sulfonyl)carbamoyl)-7,9-dimethyl-5,16-dioxo-1,2,3,5,6,7,8,9,10,11,13a,14,14a,15,16,16a-hexadecahydrocyclopropa[e]pyrrolo[1,2-a][1,4]diazacyclopentadecin-6-yl)carbamate]	0.1 to 0.5 nM	1.01 to 5 nM		
CC[C@@H]1C[C@H](C)CC/C=C\[C@@H]2C[C@@]2(C(=O)NS(=O)(=O)C2(C)CC2)NC(=O)[C@@H]2C[C@@H](Oc3nc(OC)cc4cc(F)ccc34)CN2C(=O)[C@H]1NC(=O)OC(C)(C)C [Compound 3212, tert-butyl ((2R,6S,7R,9R,13aS,14aR,16aS,Z)-7-ethyl-2-((6-fluoro-3-methoxyisoquinolin-1-yl)oxy)-9-methyl-14a-(((1-methylcyclopropyl)sulfonyl)carbamoyl)-5,16-dioxo-1,2,3,5,6,7,8,9,10,11,13a,14,14a,15,16,16a-hexadecahydrocyclopropa[e]pyrrolo[1,2-a][1,4]diazacyclopentadecin-6-yl)carbamate]	0.1 to 0.5 nM	0.51 to 1 nM		
